# Patent publication US20150141381A1, “TETRACYCLINE COMPOUNDS HAVING TARGET THERAPEUTIC ACTIVITIES” (Paratek Pharmaceuticals, Inc., priority 2001, published 2015)
# Read-outs that look alike come from different tables or passages of the source.
# Assays:
# E. coli mL308 225 = assay: In Vitro Anti-Bacterial Activity Assay (MIC), gram negative; format: cell-based; details: Escherichia coli, ML308225, 18 h, read-out: Antibiotic Activity Gram −
# S. aureus RN450 = assay: In Vitro Anti-Bacterial Activity Assay (MIC), gram positive; format: cell-based; details: Staphylococcus aureus, RN450, 18 h, read-out: Antibiotic Activity Gram +
SMILES,"MIC (E. coli mL308 225; MIC class, Table 3) [µg/mL]","MIC (S. aureus RN450; MIC class, Table 3) [µg/mL]",MIC (E. coli mL308 225) [µg/mL],MIC (S. aureus RN450) [µg/mL]
CN(C)c1cc(CNC(=O)OCC(C)(C)C)c(O)c2c1C[C@H]1C[C@H]3[C@H](N(C)C)C(O)=C(C(N)=O)C(=O)[C@@]3(O)C(O)=C1C2=O [EN],> 4,< 4,–,–
C=CCCOC(=O)NCc1cc(N(C)C)c2c(c1O)C(=O)C1=C(O)[C@]3(O)C(=O)C(C(N)=O)=C(O)[C@@H](N(C)C)[C@@H]3C[C@@H]1C2 [EO],> 4,< 4,–,–
CN(C)c1cc(CNC(=O)Oc2ccccc2)c(O)c2c1C[C@H]1C[C@H]3[C@H](N(C)C)C(O)=C(C(N)=O)C(=O)[C@@]3(O)C(O)=C1C2=O [EP],–,–,> 4,< 4
CC(C)COC(=O)NCc1cc(N(C)C)c2c(c1O)C(=O)C1=C(O)[C@]3(O)C(=O)C(C(N)=O)=C(O)[C@H](N(C)C)[C@@H]3C[C@@H]1C2 [EQ],> 4,< 4,–,–
CCCCOC(=O)NCc1cc(N(C)C)c2c(c1O)C(=O)C1=C(O)[C@]3(O)C(=O)C(C(N)=O)=C(O)[C@H](N(C)C)[C@@H]3C[C@@H]1C2 [ER],> 4,< 4,–,–
CCOC(=O)NCc1cc(N(C)C)c2c(c1O)C(=O)C1=C(O)[C@]3(O)C(=O)C(C(N)=O)=C(O)[C@H](N(C)C)[C@@H]3C[C@@H]1C2 [ES],> 4,< 4,–,–
CO/N=C(/C)c1ccc(O)c2c1C[C@H]1C[C@H]3C(N(C)C)C(O)=C(C(N)=O)C(=O)[C@@]3(O)C(O)=C1C2=O (stereo partly drawn) [ET],< 4,< 4,–,–
CO/N=C(\C)c1ccc(O)c2c1C[C@H]1C[C@H]3[C@H](N(C)C)C(O)=C(C(N)=O)C(=O)[C@@]3(O)C(O)=C1C2=O [EU],< 4,< 4,–,–
CCCCN(CCCC)Cc1cc(N(C)C)c2c(c1O)C(=O)C1=C(O)[C@]3(O)C(=O)C(C(N)=O)=C(O)C(N(C)C)[C@@H]3C[C@@H]1C2 (stereo partly drawn) [EZ],> 4,< 4,–,–
CN(C)[C@@H]1C(O)=C(C(N)=O)C(=O)[C@@]2(O)C(O)=C3C(=O)c4c(O)cccc4C[C@H]3C[C@@H]12 [E],< 4,< 4,–,–
CN(C)c1cc(NCc2cccnc2)c(O)c2c1C[C@H]1C[C@H]3C(N(C)C)C(O)=C(C(N)=O)C(=O)[C@@]3(O)C(O)=C1C2=O (stereo partly drawn) [FA],> 4,> 4,–,–
CC(C)CNC(=N)Nc1cc(N(C)C)c2c(c1O)C(=O)C1=C(O)[C@]3(O)C(=O)C(C(N)=O)=C(O)[C@@H](N(C)C)[C@@H]3C[C@@H]1C2 [FB],> 4,> 4,–,–
COC(=O)CCc1ccc(O)c2c1C[C@H]1C[C@H]3C(N(C)C)C(O)=C(C(N)=O)C(=O)[C@@]3(O)C(O)=C1C2=O (stereo partly drawn) [FC],> 4,< 4,–,–
CN(C)c1cc(CNCC(C)(C)C)c(O)c2c1C[C@H]1C[C@H]3[C@H](N(C)C)C(O)=C(C(N)=O)C(=O)[C@@]3(O)C(O)=C1C2=O [FD],< 4,< 4,–,–
CCCCCCOC(=O)NCc1cc(N(C)C)c2c(c1O)C(=O)C1=C(O)[C@]3(O)C(=O)C(C(N)=O)=C(O)[C@@H](N(C)C)[C@@H]3C[C@@H]1C2 [FE],> 4,< 4,–,–
Cc1ccc(OC(=O)NCc2cc(N(C)C)c3c(c2O)C(=O)C2=C(O)[C@]4(O)C(=O)C(C(N)=O)=C(O)[C@@H](N(C)C)[C@@H]4C[C@@H]2C3)cc1 [FG],–,–,> 4,< 4
CN(C)c1cc(CNC(=O)Oc2ccc(Br)cc2)c(O)c2c1C[C@H]1C[C@H]3[C@H](N(C)C)C(O)=C(C(N)=O)C(=O)[C@@]3(O)C(O)=C1C2=O [FH],–,–,> 4,< 4

SMILES,"MIC (E. coli mL308 225; MIC class, Table 3) [µg/mL]","MIC (S. aureus RN450; MIC class, Table 3) [µg/mL]",MIC (E. coli mL308 225) [µg/mL],MIC (S. aureus RN450) [µg/mL]
CN(C)c1cc(CNC(=O)OCC(Cl)(Cl)Cl)c(O)c2c1C[C@H]1C[C@H]3[C@H](N(C)C)C(O)=C(C(N)=O)C(=O)[C@@]3(O)C(O)=C1C2=O [FI],> 4,< 4,–,–
CN(C)c1cc(CNC(=O)Oc2ccc(F)cc2)c(O)c2c1C[C@H]1C[C@H]3[C@H](N(C)C)C(O)=C(C(N)=O)C(=O)[C@@]3(O)C(O)=C1C2=O [FJ],–,–,> 4,< 4
CC(=O)c1ccc(NC(=O)NCc2cc(N(C)C)c3c(c2O)C(=O)C2=C(O)[C@]4(O)C(=O)C(C(N)=O)=C(O)[C@@H](N(C)C)[C@@H]4C[C@@H]2C3)cc1 [FL],> 4,< 4,–,–
CN(C)[C@@H]1C(O)=C(C(N)=O)C(=O)[C@@]2(O)C(O)=C3C(=O)c4c(O)ccc(C#CCCC#Cc5ccc(O)c6c5C[C@H]5C[C@H]7[C@H](N(C)C)C(O)=C(C(N)=O)C(=O)[C@@]7(O)C(O)=C5C6=O)c4C[C@H]3C[C@@H]12 [FM],> 4,> 4,–,–
CN(C)c1ccc(NC(=O)NCc2cc(N(C)C)c3c(c2O)C(=O)C2=C(O)[C@]4(O)C(=O)C(C(N)=O)=C(O)[C@@H](N(C)C)[C@@H]4C[C@@H]2C3)cc1 [FN],> 4,< 4,–,–
CN(C)c1cc(CNC(=O)Nc2ccc(OC(F)(F)F)cc2)c(O)c2c1C[C@H]1C[C@H]3[C@H](N(C)C)C(O)=C(C(N)=O)C(=O)[C@@]3(O)C(O)=C1C2=O [FO],> 4,< 4,–,–
CCCCOCCCNCc1ccc(OC)c(-c2ccc(O)c3c2C[C@H]2C[C@H]4[C@H](N(C)C)C(O)=C(C(N)=O)C(=O)[C@@]4(O)C(O)=C2C3=O)c1 [FR],< 4,< 4,–,–
CN(C)[C@@H]1C(O)=C(C(N)=O)C(=O)[C@@]2(O)C(O)=C3C(=O)c4c(O)c(C(C)(C)C)cc(C(N)C(=O)O)c4C[C@H]3C[C@@H]12 (stereo partly drawn) [FS],> 4,> 4,–,–
CC(C)COC(=O)NCc1ccc(O)c2c1C[C@H]1C[C@H]3[C@H](N(C)C)C(O)=C(C(N)=O)C(=O)[C@@]3(O)C(O)=C1C2=O [FT],> 4,< 4,–,–
CN(C)[C@@H]1C(O)=C(C(N)=O)C(=O)[C@@]2(O)C(O)=C3C(=O)c4c(O)ccc(CNC(=O)OCC(C)(C)C)c4C[C@H]3C[C@@H]12 [FU],> 4,< 4,–,–
CN(C)[C@@H]1C(O)=C(C(N)=O)C(=O)[C@@]2(O)C(O)=C3C(=O)c4c(O)c(I)cc(CN)c4C[C@H]3C[C@@H]12 [FV],> 4,> 4,–,–
CCOC(=O)C(NCc1ccc(OC)c(-c2ccc(O)c3c2C[C@H]2C[C@H]4[C@H](N(C)C)C(O)=C(C(N)=O)C(=O)[C@@]4(O)C(O)=C2C3=O)c1)C(C)C (stereo partly drawn) [FX],> 4,< 4,–,–
COC(=O)C(CC(C)C)NCc1ccc(OC)c(-c2ccc(O)c3c2C[C@H]2C[C@H]4[C@H](N(C)C)C(O)=C(C(N)=O)C(=O)[C@@]4(O)C(O)=C2C3=O)c1 (stereo partly drawn) [FY],> 4,< 4,–,–
CCOC(=O)C(Cc1ccccc1)NCc1ccc(OC)c(-c2ccc(O)c3c2C[C@H]2C[C@H]4[C@H](N(C)C)C(O)=C(C(N)=O)C(=O)[C@@]4(O)C(O)=C2C3=O)c1 (stereo partly drawn) [FZ],> 4,< 4,–,–
COc1ccc(CNCCN(C)C)cc1-c1ccc(O)c2c1C[C@H]1C[C@H]3[C@H](N(C)C)C(O)=C(C(N)=O)C(=O)[C@@]3(O)C(O)=C1C2=O [GA],> 4,< 4,–,–
CC(C)NCc1ccc(-c2ccc(O)c3c2C[C@H]2C[C@H]4[C@H](N(C)C)C(O)=C(C(N)=O)C(=O)[C@@]4(O)C(O)=C2C3=O)c2ccccc12 [GB],< 4,< 4,–,–
